Data reported in patent publication US12570639B2, “Tetrahydroquinoline derivative and medicinal use thereof” (Toray Industries, Inc., priority 2020, dated 2026).
Structures can show the parent of a compound that is named as a salt.

Experiments:
[1] = system: Human fibrosarcoma cells (HT-1080 cells); assay: In vitro inhibitory action against ferroptosis (Erastin-induced cell death, Cell Counting Kit-8); type: cell-based; conditions: Erastin 3 μmol/L, 24 hours
[2] = In vitro radical scavenging action (DPPH method); conditions: 30 minutes at room temperature, maximum concentration 100 μmol/L
Method: Radical scavenging action was evaluated using the DPPH method in the compound of Comparative Example 1, which is a tetrahydroquinoxaline derivative, and in the tetrahydroquinoline derivative (I) or a pharmaceutically acceptable salt thereof. The DPPH method was performed using an antioxidant capacity measurement kit (Dojindo Laboratories).
A test compound was dissolved in DMSO, and the resulting solution was then mixed with an assay buffer and a DPPH solution, which are included in the kit, to a total volume of 200 μL to obtain a final concentration of 10% DMSO, and the reaction was allowed to proceed. Wells added with 100 μmol/L ferrostatin-1, a radical scavenger, were grouped as “control,” and wells added with not test compound were grouped as “background.” The test compound was serially diluted 3-fold starting from a maximum concentration of 100 μmol/L, and the diluted test compound (1.2, 3.7, 11.1, 33.3, or 100 μmol/L) was added and allowed to react at room temperature. Thirty minutes after the reaction, the absorbance at 517 nm was measured, and the average absorbance value was calculated (N=2). The radical scavenging action of the test compound (hereinafter referred to as radical scavenging rate, %) was calculated based on the equation 2 below. The EC50 value of the test compound was calculated from the radical scavenging rate. Radical scavenging rate (%)=[1−{(Average absorbance value at 517 nm measured when a test compound is added)−(Average absorbance value at 517 nm measured in the background)}/{(Average absorbance value at 517 nm measured in the control)−(Average absorbance value at 517 nm measured in the background)}]×100 Equation 2
A note “no detection of radical scavenging action (N.D.),” is given to compounds with a EC50 of >100 μmol/L.

[3] = evaluation concentration 30 μmol/L
[4] = evaluation concentration 50 μmol/L
[5] = evaluation concentration 10 μmol/L

Compound | EC50 [2] [µM] | Ferroptosis inhibition rate (%) [1, 3] [%] | Ferroptosis inhibition rate (%) [1, 4] [%] | Ferroptosis inhibition rate (%) [1, 5] [%] | Ferroptosis inhibition rate (%) ([1]; evaluation concentration 30 μmol/L, hydrochloride)
Cc1ccc2c(c1)CCC(c1ccc(C(N)=O)cc1)N2 (stereo not shown) [Example 99, 4-(6-methyl-1,2,3,4-tetrahydroquinolin-2-yl)benzamide] | > 100 | 98.85 | – | – | –
Cc1ccc2c(c1)NC(c1ccc(S(N)(=O)=O)cc1)CC2 (stereo not shown) [Example 105, 4-(7-methyl-1,2,3,4-tetrahydroquinolin-2-yl)benzenesulfonamide] | > 100 | 99.03 | – | – | –
Cc1ccc2c(c1)NC(c1ccc(C(N)=O)cc1)CC2 (stereo not shown) [Example 106, 4-(7-methyl-1,2,3,4-tetrahydroquinolin-2-yl)benzamide] | > 100 | 111.7 | – | – | –
NS(=O)(=O)c1ccc(C2CCc3cc(F)ccc3N2)cc1 (stereo not shown) [Example 107, 4-(6-fluoro-1,2,3,4-tetrahydroquinolin-2-yl)benzenesulfonamide] | > 100 | 100.8 | – | – | –
NS(=O)(=O)c1ccc(C2CCc3cc(F)ccc3N2)cc1 (stereo not shown) [Example 109, 4-(6-fluoro-1,2,3,4-tetrahydro-quinolin-2-yl)benzenesulfonamide] | > 100 | – | – | 83.63 | –
Cc1cccc2c1CCC(c1ccc(S(N)(=O)=O)cc1)N2 (stereo not shown) [Example 112, 4-(5-methyl-1,2,3,4-tetrahydroquinolin-2-yl)benzenesulfonamide] | > 100 | 105.5 | – | – | –
NS(=O)(=O)c1ccc(C2CCc3cc(Cl)ccc3N2)cc1 (stereo not shown) [Example 115, 4-(6-chloro-1,2,3,4-tetrahydroquinolin-2-yl)benzenesulfonamide] | > 100 | 105.8 | – | – | –
NS(=O)(=O)c1ccc(C2CCc3cc(Cl)ccc3N2)cc1 (stereo not shown) [Example 116, 4-(6-chloro-1,2,3,4-tetrahydro-quinolin-2-yl)benzenesulfonamide] | > 100 | – | – | 80.69 | –
NS(=O)(=O)c1ccc(C2CCc3ccc(F)cc3N2)cc1 (stereo not shown) [Example 118, 4-(7-fluoro-1,2,3,4-tetrahydroquinolin-2-yl)benzenesulfonamide] | > 100 | 95.28 | – | – | –
Cc1ccc2c(c1)CCC(c1ccc(S(N)(=O)=O)cc1)N2 (stereo not shown) [Example 120, 4-(6-methyl-1,2,3,4-tetrahydroquinolin-2-yl)benzenesulfonamide] | > 100 | – | – | 87.34 | –
NC(=O)c1ccc(C2CCc3cc(Cl)ccc3N2)cc1 (stereo not shown) [Example 121, 4-(6-chloro-1,2,3,4-tetrahydroquinolin-2-yl)benzamide] | > 100 | – | – | 92.10 | –
NC(=O)c1ccc(C2CCc3cc(Cl)ccc3N2)cc1 (stereo not shown) [Example 122, 4-(6-chloro-1,2,3,4-tetrahydroquinolin-2-yl)benzamide] | > 100 | – | – | 97.59 | –
NC(=O)c1ccc(C2CCc3cc(Cl)ccc3N2)cc1 (stereo not shown) [Example 131, 4-(6-chloro-1,2,3,4-tetrahydroquinolin-2-yl)benzamide] | > 100 | 102.5 | – | – | –
NC(=O)c1ccc(C2CCc3cc(F)ccc3N2)cc1 (stereo not shown) [Example 132, 4-(6-fluoro-1,2,3,4-tetrahydroquinolin-2-yl)benzamide] | > 100 | 105.6 | – | – | –
NS(=O)(=O)c1ccc(C2CCc3c(Cl)cccc3N2)cc1 (stereo not shown) [Example 134, 4-(5-chloro-1,2,3,4-tetrahydroquinolin-2-yl)benzenesulfonamide] | > 100 | 77.77 | – | – | –
NS(=O)(=O)c1ccc(C2CCc3c(F)cccc3N2)cc1 (stereo not shown) [Example 135, 4-(5-fluoro-1,2,3,4-tetrahydroquinolin-2-yl)benzenesulfonamide] | > 100 | 62.32 | – | – | –
CS(=O)(=O)Nc1ccc(C2CCc3ccccc3N2)cc1 (stereo not shown) [Example 136, N-(4-(1,2,3,4-tetrahydroquinolin-2-yl)phenyl)methanesulfonamide] | > 100 | 75.50 | – | – | –
NC(=O)c1ccc(C2CCc3c(F)cccc3N2)cc1 (stereo not shown) [Example 137, 4-(5-fluoro-1,2,3,4-tetrahydroquinolin-2-yl)benzamide] | > 100 | 93.06 | – | – | –
NC(=O)c1ccc(C2CCc3c(Cl)cccc3N2)cc1 (stereo not shown) [Example 138, 4-(5-chloro-1,2,3,4-tetrahydroquinolin-2-yl)benzamide] | > 100 | 65.15 | – | – | –
O=C(Cc1ccc2c(c1)CCC(c1ccccc1)N2)N1CCOCC1 (stereo not shown) [Example 145, 1-morpholino-2-(2-phenyl-1,2,3,4-tetrahydroquinolin-6-yl)ethan-1-one] | > 100 | 102.0 | – | – | –

More lines, main results first:

EC50 [2] [µM] | Compound | Ferroptosis inhibition rate (%) [1, 3] [%] | Ferroptosis inhibition rate (%) [1, 4] [%] | Ferroptosis inhibition rate (%) [1, 5] [%] | Ferroptosis inhibition rate (%) ([1]; evaluation concentration 30 μmol/L, hydrochloride)
> 100 | O=C(Cc1ccc2c(c1)CCC(c1ccccc1)N2)N1CC(O)C1 (stereo not shown) [Example 62, 1-(3-hydroxyazetidin-1-yl)-2-(2-phenyl-1,2,3,4-tetrahydroquinolin-6-yl)ethan-1-one] | 103.2 | – | – | –
> 100 | Fc1cccc2c1CCC(c1ccccc1)N2 (stereo not shown) [Example 66, 5-fluoro-2-phenyl-1,2,3,4-tetrahydroquinoline] | 101.5 | – | – | –
> 100 | Clc1cccc2c1CCC(c1ccccc1)N2 (stereo not shown) [Example 67, 5-chloro-2-phenyl-1,2,3,4-tetrahydroquinoline] | 102.4 | – | – | –
> 100 | Fc1ccc2c(c1)NC(c1ccccc1)CC2 (stereo not shown) [Example 68, 7-fluoro-2-phenyl-1,2,3,4-tetrahydroquinoline] | 101.9 | – | – | –
> 100 | Clc1ccc2c(c1)NC(c1ccccc1)CC2 (stereo not shown) [Example 69, 7-chloro-2-phenyl-1,2,3,4-tetrahydroquinoline] | 106.4 | – | – | –
> 100 | FC(F)(F)Oc1ccc2c(c1)CCC(c1ccccc1)N2 (stereo not shown) [Example 81, 2-phenyl-6-(trifluoromethoxy)-1,2,3,4-tetrahydroquinoline] | – | 103.9 | – | –
> 100 | Fc1ccc2c(c1)CCC(c1ccccc1)N2 (stereo not shown) [Example 82, 6-fluoro-2-phenyl-1,2,3,4-tetrahydroquinoline] | 112.6 | – | – | –
> 100 | Clc1ccc2c(c1)CCC(c1ccccc1)N2 (stereo not shown) [Example 83, 6-chloro-2-phenyl-1,2,3,4-tetrahydroquinoline] | – | 103.8 | – | –
> 100 | Fc1cc2c(cc1F)NC(c1ccccc1)CC2 (stereo not shown) [Example 85, 6,7-difluoro-2-phenyl-1,2,3,4-tetrahydroquinoline] | – | 94.94 | – | –
> 100 | O=C(Cc1ccc2c(c1)CCC(c1ccccc1)N2)N1CC(O)C1 (stereo not shown) [Example 143, 1-(3-hydroxyazetidin-1-yl)-2-(2-phenyl-1,2,3,4-tetrahydroquinolin-6-yl)ethan-1-one hydrochloride] | – | – | – | 93.97
> 100 | CC1(C)CN(C(=O)Cc2ccc3c(c2)CCC(c2ccccc2)N3)C1 (stereo not shown) [Example 146, 1-(3,3-dimethylazetidin-1-yl)-2-(2-phenyl-1,2,3,4-tetrahy-dro-quin-olin-6-yl)ethan-1-one] | 112.8 | – | – | –
> 100 | COC1CN(C(=O)Cc2ccc3c(c2)CCC(c2ccccc2)N3)C1 (stereo not shown) [Example 147, 1-(3-methoxyazetidin-1-yl)-2-(2-phenyl-1,2,3,4-tetrahydroquinolin-6-yl)ethan-1-one] | 93.00 | – | – | –
> 100 | O=C(Cc1ccc2c(c1)CCC(c1ccccc1)N2)NC1COC1 (stereo not shown) [Example 148, N-(oxetan-3-yl)-2-(2-phenyl-1,2,3,4-tetrahydroquinolin-6-yl)acetamide] | 86.55 | – | – | –
> 100 | O=C(Cc1ccc2c(c1)CCC(c1ccccc1)N2)N1CC(F)(F)C1 (stereo not shown) [Example 149, 1-(3,3-difluoroazetidin-1-yl)-2-(2-phenyl-1,2,3,4-tetrahydroquinolin-6-yl)ethan-1-one] | 99.36 | – | – | –
> 100 | CN(CCO)C(=O)Cc1ccc2c(c1)CCC(c1ccccc1)N2 (stereo not shown) [Example 150, N-(2-hydroxyethyl)-N-methyl-2-(2-phenyl-1,2,3,4-tetrahydroquino-lin-6-yl)acetamide] | 106.9 | – | – | –
> 100 | O=C(Cc1ccc2c(c1)CCC(c1ccccc1)N2)N1CCC1 (stereo not shown) [Example 151, 1-(azetidin-1-yl)-2-(2-phenyl-1,2,3,4-tetrahydroquinolin-6-yl)ethan-1-one] | 108.2 | – | – | –
> 100 | O=C(Cc1ccc2c(c1)CCC(c1ccccc1)N2)NC1CC1 (stereo not shown) [Example 152, N-cyclopropyl-2-(2-phenyl-1,2,3,4-tetrahydroquinolin-6-yl)acetamide] | 108.1 | – | – | –
> 100 | O=C(Cc1ccc2c(c1)CCC(c1ccccc1)N2)NC1CCC1 (stereo not shown) [Example 155, N-cyclobutyl-2-(2-phenyl-1,2,3,4-tetrahydroquinolin-6-yl)acetamide] | 106.1 | – | – | –
